From ChEMBL document CHEMBL2157896, “Engineering pH-gated transitions for selective and efficient double-strand DNA photocleavage in hypoxic tumors” (J Med Chem, 2011)
Calls of active or inactive are those of the source. The calls are words filed in the database; no cut-off is given here.

What was measured:
Nucleic Acid [1] = test: Induction of photochemical DNA cleavage in Escherichia coli pBR322 assessed as form 2 level at 15 uM in pH 7.0 phosphate buffer measured after 4 mins of UV irradiation; type: nucleic-acid assay
Nucleic Acid [2] = test: Induction of DNA damage in human […] cells at 30 uM incubated for 3 hrs by single cell gel electrophoresis; type: cell-based
Nucleic Acid [3] = test: Induction of photochemical DNA cleavage in Escherichia coli pBR322 assessed as form I level at 15 uM in pH 8.0 phosphate buffer measured after 0.5 mins of UV irradiation; type: nucleic-acid assay
Nucleic Acid [4] = test: Induction of photochemical DNA cleavage in Escherichia coli pBR322 assessed as form I level at 15 uM in pH 8.0 phosphate buffer measured after 6 mins of UV irradiation; type: nucleic-acid assay
Nucleic Acid [5] = test: Induction of photochemical DNA cleavage in Escherichia coli pBR322 assessed as form I level at 15 uM in pH 6.0 phosphate buffer measured after 8 mins of UV irradiation; type: nucleic-acid assay
A-375 = test: Phototoxicity in human A375 cells incubated for 72 hrs exposed to UV light for 10 mins by MTT assay; type: functional; settings: A-375, light or radiation study
Nucleic Acid [6] = test: Induction of photochemical DNA cleavage in Escherichia coli pBR322 assessed as form 2 level at 15 uM in pH 6.0 phosphate buffer measured after 8 mins of UV irradiation; type: nucleic-acid assay
Nucleic Acid [7] = test: Induction of photochemical DNA cleavage in Escherichia coli pBR322 assessed as form 2 level at 15 uM in pH 7.0 phosphate buffer measured after 2 mins of UV irradiation; type: nucleic-acid assay
Nucleic Acid [8] = test: Induction of photochemical DNA cleavage in Escherichia coli pBR322 assessed as form 3 level at 15 uM in pH 6.0 phosphate buffer measured after 0.5 mins of UV irradiation; type: nucleic-acid assay
Nucleic Acid [9] = test: Induction of photochemical DNA cleavage in Escherichia coli pBR322 assessed as form 3 level at 15 uM in pH 7.0 phosphate buffer measured after 10 mins of UV irradiation; type: nucleic-acid assay
Nucleic Acid [10] = test: Induction of photochemical DNA cleavage in Escherichia coli pBR322 assessed as disappearance of supercoiled DNA at 15 uM in pH 7.0 phosphate buffer after 10 mins of UV irradiation; type: nucleic-acid assay
Nucleic Acid [11] = test: Induction of photochemical DNA cleavage in Escherichia coli pBR322 assessed as form 2 level at 15 uM in pH 6.0 phosphate buffer measured after 10 mins of UV irradiation; type: nucleic-acid assay
Nucleic Acid [12] = test: Induction of photochemical DNA cleavage in Escherichia coli pBR322 assessed as form I level at 15 uM in pH 6.0 phosphate buffer measured after 2 mins of UV irradiation; type: nucleic-acid assay
Nucleic Acid [13] = test: Induction of photochemical DNA cleavage in Escherichia coli pBR322 assessed as form 3 level at 15 uM in pH 6.0 phosphate buffer measured after 6 mins of UV irradiation; type: nucleic-acid assay
Nucleic Acid [14] = test: Induction of photochemical DNA cleavage in Escherichia coli pBR322 assessed as form 2 level at 15 uM in pH 8.0 phosphate buffer measured after 0.5 mins of UV irradiation; type: nucleic-acid assay
Nucleic Acid [15] = test: Induction of photochemical DNA cleavage in Escherichia coli pBR322 assessed as form I level at 15 uM in pH 7.0 phosphate buffer measured after 6 mins of UV irradiation; type: nucleic-acid assay
Nucleic Acid [16] = test: Induction of photochemical DNA cleavage in Escherichia coli pBR322 assessed as form 3 level at 15 uM in pH 7.0 phosphate buffer measured after 1 min of UV irradiation; type: nucleic-acid assay
Nucleic Acid [17] = test: Induction of photochemical DNA cleavage in Escherichia coli pBR322 assessed as form I level at 15 uM in pH 7.0 phosphate buffer measured after 10 mins of UV irradiation; type: nucleic-acid assay
Nucleic Acid [18] = test: Induction of photochemical DNA cleavage in Escherichia coli pBR322 assessed as form 3 level at 15 uM in pH 6.0 phosphate buffer measured after 1 min of UV irradiation; type: nucleic-acid assay
Nucleic Acid [19] = test: Induction of photochemical DNA cleavage in Escherichia coli pBR322 assessed as form 3 level at 15 uM in pH 8.0 phosphate buffer measured after 6 mins of UV irradiation; type: nucleic-acid assay
Nucleic Acid [20] = test: Induction of photochemical DNA cleavage in Escherichia coli pBR322 assessed as form I level at 15 uM in pH 6.0 phosphate buffer measured after 1 min of UV irradiation; type: nucleic-acid assay
Nucleic Acid [21] = test: Induction of photochemical DNA cleavage in Escherichia coli pBR322 assessed as form 3 level at 15 uM in pH 8.0 phosphate buffer measured after 4 mins of UV irradiation; type: nucleic-acid assay
Nucleic Acid [22] = test: Induction of photochemical DNA cleavage in Escherichia coli pBR322 assessed as form I level at 15 uM in pH 8.0 phosphate buffer measured after 2 mins of UV irradiation; type: nucleic-acid assay
Nucleic Acid [23] = test: Induction of photochemical DNA cleavage in Escherichia coli pBR322 assessed as form 3 level at 15 uM in pH 7.0 phosphate buffer measured after 8 mins of UV irradiation; type: nucleic-acid assay
Nucleic Acid [24] = test: Induction of photochemical DNA cleavage in Escherichia coli pBR322 assessed as form 2 level at 15 uM in pH 6.0 phosphate buffer measured after 2 mins of UV irradiation; type: nucleic-acid assay
Nucleic Acid [25] = test: Induction of photochemical DNA cleavage in Escherichia coli pBR322 assessed as form 3 level at 15 uM in pH 8.0 phosphate buffer measured after 2 mins of UV irradiation; type: nucleic-acid assay
Nucleic Acid [26] = test: Induction of photochemical DNA cleavage in Escherichia coli pBR322 assessed as form I level at 15 uM in pH 8.0 phosphate buffer measured after 1 min of UV irradiation; type: nucleic-acid assay
Nucleic Acid [27] = test: Induction of photochemical DNA cleavage in Escherichia coli pBR322 assessed as form 3 level at 15 uM in pH 8.0 phosphate buffer measured after 0.5 mins of UV irradiation; type: nucleic-acid assay
Nucleic Acid [28] = test: Induction of photochemical DNA cleavage in Escherichia coli pBR322 assessed as form I level at 15 uM in pH 8.0 phosphate buffer measured after 10 mins of UV irradiation; type: nucleic-acid assay
Nucleic Acid [29] = test: Induction of photochemical DNA cleavage in Escherichia coli pBR322 assessed as form 2 level at 15 uM in pH 7.0 phosphate buffer measured after 6 mins of UV irradiation; type: nucleic-acid assay
Nucleic Acid [30] = test: Induction of DNA cleavage in Escherichia coli pBR322 assessed as form3/form2 ratio at 15 uM at pH 6 to 9 after 10 mins of UV irradiation; type: nucleic-acid assay
Nucleic Acid [31] = test: Induction of photochemical DNA cleavage in Escherichia coli pBR322 assessed as form 2 level at 15 uM in pH 6.0 phosphate buffer measured after 4 mins of UV irradiation; type: nucleic-acid assay
Nucleic Acid [32] = test: Induction of photochemical DNA cleavage in Escherichia coli pBR322 assessed as form 3 level at 15 uM in pH 6.0 phosphate buffer measured after 2 mins of UV irradiation; type: nucleic-acid assay
Nucleic Acid [33] = test: Induction of photochemical DNA cleavage in Escherichia coli pBR322 assessed as form I level at 15 uM in pH 7.0 phosphate buffer measured after 4 mins of UV irradiation; type: nucleic-acid assay
Nucleic Acid [34] = test: Induction of photochemical DNA cleavage in Escherichia coli pBR322 assessed as form 2 level at 15 uM in pH 8.0 phosphate buffer measured after 8 mins of UV irradiation; type: nucleic-acid assay

NCCCC[C@H](N)C(=O)NCCCC[C@H](N)C(=O)Nc1ccc(C#Cc2c(F)c(F)nc(F)c2F)cc1.O=C(O)C(F)(F)F was tested, and the Activity (Nucleic Acid [1]) was 52.4%, the Activity (Nucleic Acid [2]) was “Active” and the Activity (Nucleic Acid [3]) was 86.4%. For the same molecule, the Activity (Nucleic Acid [4]) was 40.8%, the Activity (Nucleic Acid [5]) was 0% and the CC50 (A-375) was 270 nM. It also gave an Activity (Nucleic Acid [6]) of 35%, an Activity (Nucleic Acid [7]) of 41.5% and an Activity (Nucleic Acid [8]) of 13.5%. For the same molecule, the Activity (Nucleic Acid [9]) was 40.5%, the Activity (Nucleic Acid [10]) was “Active” and the Activity (Nucleic Acid [11]) was 21.3%. The Activity (Nucleic Acid [12]) was 17.3%, the Activity (Nucleic Acid [13]) was 51.9% and the Activity (Nucleic Acid [14]) was 13.6%. For the same molecule, the Activity (Nucleic Acid [15]) was 24.7%, the Activity (Nucleic Acid [16]) was 0% and the Activity (Nucleic Acid [17]) was 11.7%. For the same molecule, the Activity (Nucleic Acid [18]) was 17.1%, the Activity (Nucleic Acid [19]) was 0% and the Activity (Nucleic Acid [20]) was 30.2%. The Activity (Nucleic Acid [21]) was 0%, the Activity (Nucleic Acid [22]) was 77.8% and the Activity (Nucleic Acid [23]) was 28.1%. For the same molecule, the Activity (Nucleic Acid [24]) was 54.2%, the Activity (Nucleic Acid [25]) was 0% and the Activity (Nucleic Acid [26]) was 83.9%. It also gave an Activity (Nucleic Acid [27]) of 0%, an Activity (Nucleic Acid [28]) of 26.3% and an Activity (Nucleic Acid [29]) of 47.2%. For the same molecule, the Ratio (Nucleic Acid [30]) was 2, the Activity (Nucleic Acid [31]) was 65.1% and the Activity (Nucleic Acid [32]) was 28.4%. For the same molecule, the Activity (Nucleic Acid [33]) was 22.6% and the Activity (Nucleic Acid [34]) was 45.6%.
